GI50 and TGI data for 15 molecules are collected here from PubChem BioAssay (NCI).

Common to all, as to assay: growth of human tumour cells (NCI), 48 h
In experiment [1] the test system is NCI/ADR-RES ovarian.
Experiment [2] concerns CAKI-1 renal.
Experiment [3] relates to HL-60(TB) leukemia.
In experiment [4] the test system is OVCAR-3 ovarian.
Experiment [5] concerns SF-539 CNS.
The subject of experiment [6] is SR leukemia.
Experiment [7] deals with RXF 393 renal.
Experiment [8] relates to MOLT-4 leukemia.
Experiment [9] has as its system CCRF-CEM leukemia.
Experiment [10] relates to MALME-3M melanoma.

Each structure is given as a SMILES string.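 1) Cells in 96-well plates. 2) Compound, 48 h, 5 concentrations. 3) Linear interpolation between surrounding doses. 4) Unreached endpoint = highest concentration. Abbreviation: GI50, concentration required for 50% inhibition of growth. Definition used: TGI = concentration required for complete inhibition of growth.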 A value given as a limit tells only on which side of the number the result lay.

`COc1ccc(/C=c2/sc3n(c2=O)C(c2ccc(OC)c(OC)c2)C2=C(N=3)c3cc(F)ccc3OC2)cc1` (stereo not drawn): the GI50 in experiment [1] was 18.7 µM; in experiment [2], 10.1 µM; in experiment [3] it was 33.1 µM; in experiment [4], 2.54 µM; in experiment [5], 43 µM; in experiment [6], 60.9 µM. The GI50 was greater than 100 µM in [7], greater than 22.7 µM in experiment [8] and greater than 55.7 µM in experiment [9]. Further, the TGI in experiment [1] is 87.4 µM; in [2], 41.7 µM; in [3], greater than 94.6 µM; in experiment [4], 14.1 µM; in experiment [5], greater than 100 µM; in experiment [6] it was greater than 100 µM. Moreover, the TGI in experiment [7], in experiment [8] and in experiment [9] was greater than 100 µM in each case.
On to `O=C(O)c1cccc(OCCO)c1`, for which the TGI in [1], in experiment [2], in experiment [3], in [10], in experiment [4] and in [5] was greater than 100 µM each time. The TGI in experiment [6], in experiment [7] and in [8] was greater than 100 µM in each case.
`CC(=O)Oc1ccccc1C(=O)N=C1[Se]CCCN1C(=O)c1ccccc1OC(C)=O`: the GI50 in experiment [1] is 2.92 µM; in experiment [3], 2.14 µM; in [10], 2.31 µM; in experiment [5] it was 2.66 µM; in [6] it was 2.44 µM; in [7], 2.48 µM. Further, in experiment [8], the GI50 is 1.92 µM. Further, the TGI came to 8.09 µM in experiment [1]; 5.63 µM in experiment [3]; 4.9 µM in experiment [10]; 6.28 µM in experiment [5]; 9.17 µM in [6]; 6.92 µM in experiment [7]. Further, the TGI in experiment [8] worked out at 4.96 µM.
Regarding `O=C(O)Cc1c(O)ccc2ccccc12`, the TGI in experiment [1], in experiment [2], in experiment [10], in experiment [4], in [5] and in [6] was greater than 100 µM each time. Also, the TGI in experiment [7] and in experiment [8] was greater than 100 µM throughout.
Take `COC(COC(=O)N1CCN(C=O)CC1)C1=C(N2CC2)C(=O)C(C)=C(N2CC2)C1=O` (stereo not drawn): the TGI in experiment [1] was 31.9 µM; in experiment [2], 3.6 µM; in experiment [10], 1.53 µM; in experiment [4], 2.52 µM; in experiment [5], 0.342 µM; in experiment [6], less than 0.011 µM. Further, the results for the TGI in experiment [7], in experiment [8] and in [9] were 0.815 µM, 14.1 µM and 4.77 µM, respectively.
Consider `CC(=O)Oc1ccc(Nc2c3ccccc3nc3ccccc23)cc1`, for which the GI50 was 2.25 µM in experiment [1]; 1.21 µM in experiment [2]; 0.705 µM in experiment [3]; 1.31 µM in [10]; 2.14 µM in [4]; 1.63 µM in experiment [5]. For the same molecule, the GI50 in [6] is 0.355 µM; in experiment [7] it was 1.08 µM; in experiment [8], 0.321 µM. Besides, the TGI is 12.1 µM in experiment [1]; 12.7 µM in [2]; 6.14 µM in experiment [3]; 5.35 µM in experiment [10]; 6.48 µM in [4]; 6.24 µM in experiment [5]. Besides, the TGI is greater than 100 µM in [6], 2.93 µM in experiment [7] and greater than 100 µM in experiment [8].
As to `O=C(Nc1cccc(Cl)c1Cl)c1cccc(NC2=C(Cl)C(=O)N(Cc3ccccc3)C2=O)c1`, the GI50 in [1] was 12.6 µM; in experiment [2], 33.2 µM; in experiment [3] it was 10.5 µM; in experiment [10] it was greater than 100 µM; in experiment [4] it was 16.5 µM; in experiment [5], 9.87 µM. In addition, the GI50 was 4.16 µM in experiment [6], 3.11 µM in experiment [8] and 14 µM in experiment [9]. The TGI is 62.5 µM in experiment [1]; greater than 100 µM in experiment [2]; 30.7 µM in experiment [3]; greater than 100 µM in experiment [10]; 77.4 µM in experiment [4]; 40.6 µM in experiment [5]. For the same molecule, the values for the TGI in [6], in [8] and in [9] were 23.5 µM, 9.07 µM and greater than 100 µM, respectively.
`Cc1c[n+](Cc2ccc3ccccc3c2)cn1Cc1ccc2ccccc2c1`: the GI50 in [1] was greater than 100 µM; in experiment [3], 0.514 µM; in experiment [10], 1.29 µM; in experiment [4], 1.04 µM; in experiment [5], 1.57 µM; in [6] it was 1.46 µM. For the same molecule, the GI50 in experiment [7] is 1.62 µM; in [8] it was 1.7 µM; in experiment [9], 2.45 µM. For the same molecule, the TGI in [1] was greater than 100 µM; in experiment [3], 2.34 µM; in experiment [10] it was 3.02 µM; in [4], 2.28 µM; in experiment [5], 3.05 µM; in experiment [6] it was 3.58 µM. In addition, the figures for the TGI in [7], in experiment [8] and in experiment [9] were 3.47 µM, 4.06 µM and 5.71 µM, respectively.
As to `O=C(O)c1ccccc1-c1ccccc1C(=O)Nc1ccc2c(c1)Cc1cc(F)ccc1-2`, the TGI was greater than 100 µM in experiment [1]; greater than 100 µM in experiment [2]; 88.7 µM in [10]; 45.6 µM in experiment [4]; greater than 100 µM in experiment [5]; 48.9 µM in experiment [6]. Besides, the TGI in experiment [7] and in [8] was greater than 100 µM throughout.
In the case of `Nc1nc(Cl)cc(NCCO)n1`, the TGI in experiment [1], in experiment [2], in [10], in experiment [4], in experiment [5] and in experiment [6] was greater than 100 µM throughout. The TGI in [7] and in experiment [8] was greater than 100 µM in each case.
As for `Nc1ccncc1/C=C1/C(=O)Nc2ccccc21`, the GI50 in experiment [1] was 35.9 µM; in experiment [2], 30.2 µM; in experiment [3], 14.5 µM; in experiment [10], 20.6 µM; in [4] it was 25.4 µM; in experiment [5], 34.6 µM. The GI50 in [6] is 23.2 µM; in experiment [8], 37.3 µM; in [9], 68.3 µM. Besides, the TGI was greater than 100 µM in [1]; 89.7 µM in experiment [2]; 39.8 µM in experiment [3]; 80.9 µM in experiment [10]; 76.3 µM in experiment [4]; greater than 100 µM in experiment [5]. Also, the TGI in experiment [6], in experiment [8] and in [9] was greater than 100 µM each time.
Turning to `CCOC(=O)C1=C(C)N(N)C(=S)NC1c1ccc(C)cc1` (stereo not drawn), the GI50 in experiment [1] is 61.9 µM; in [10] it was 14.4 µM; in experiment [4] it was 22.4 µM; in experiment [6], 28.3 µM; in experiment [7] it was 6.44 µM; in experiment [8], 45.7 µM. The GI50 in [9] was 49.8 µM. Further, the TGI in experiment [1], in experiment [10], in [4], in experiment [6], in experiment [7] and in experiment [8] was greater than 100 µM in each case. This molecule also yielded a TGI in experiment [9] greater than 100 µM.
As to `COc1ccc(C2C(C#N)=C(N)OC3=C2COc2ccc(F)cc23)cc1OC` (stereo not drawn), the GI50 in experiment [1] is 19.4 µM; in [2] it was 16.5 µM; in experiment [3] it was 34.2 µM; in experiment [4], 17.5 µM; in experiment [5], 21.5 µM; in experiment [6], 9.09 µM. Moreover, the GI50 was 69.3 µM in experiment [7], 49.5 µM in experiment [8] and 47.5 µM in experiment [9]. Moreover, the TGI is 57.3 µM in experiment [1]; 47.3 µM in experiment [2]; 70.8 µM in [3]; 43.5 µM in experiment [4]; 75.4 µM in experiment [5]; greater than 100 µM in experiment [6]. In addition, the TGI in experiment [7], in experiment [8] and in experiment [9] was greater than 100 µM in each case.
Turning to `Cc1n(Cc2ccc3ccccc3c2)cc[n+]1Cc1ccc2ccccc2c1`, the GI50 in experiment [1] is 41.3 µM; in experiment [3], 0.427 µM; in [10] it was 0.627 µM; in [4], 0.521 µM; in experiment [5], 1.37 µM; in experiment [6] it was 0.552 µM. For the same molecule, the GI50 in [7] is 0.857 µM; in [8], 1.76 µM; in experiment [9], 1.87 µM. Moreover, the TGI is greater than 100 µM in [1]; 2.01 µM in experiment [3]; 2.56 µM in [10]; 2.06 µM in [4]; 7.14 µM in experiment [5]; 2.47 µM in experiment [6]. The results for the TGI in [7], in [8] and in experiment [9] were 3.4 µM, 5.61 µM and 7.19 µM, respectively.
For the molecule `Nc1nc(Nc2ccccc2)c2ncn(Cc3cc4c(cc3Br)OCO4)c2n1`, the GI50 in [1] is 0.0565 µM; in experiment [2], 0.135 µM; in experiment [3], 0.0358 µM; in experiment [4], 0.0326 µM; in experiment [5], 0.0394 µM; in [6], 0.0371 µM. Moreover, the GI50 is 0.0602 µM in [7], 0.196 µM in [8] and 0.0431 µM in experiment [9]. For the same molecule, the TGI is greater than 37.5 µM in experiment [1]; greater than 55.2 µM in experiment [2]; 1.26 µM in experiment [3]; 0.237 µM in experiment [4]; 0.51 µM in [5]; greater than 100 µM in experiment [6]. Also, the TGI in experiment [7] is 8.65 µM; in experiment [8] it was greater than 100 µM.
